Laboratory results reported in ChEMBL document CHEMBL1147156, “Structure-based design and synthesis of N(omega)-nitro-L-arginine-containing peptidomimetics as selective inhibitors of neuronal nitric oxide synthase. Displacement of the heme structural water” (J Med Chem, 2007).

How the values were obtained:
[1] = Inhibition of bovine recombinant neuronal NOS by hemoglobin capture assay; parameters: species or system Bos taurus
[2] = biological target: T1, Nitric oxide synthase, inducible (Mus musculus, UniProt P29477); test: Inhibition of mouse recombinant inducible NOS by hemoglobin capture assay
T1 sequence (P29477 whole entry): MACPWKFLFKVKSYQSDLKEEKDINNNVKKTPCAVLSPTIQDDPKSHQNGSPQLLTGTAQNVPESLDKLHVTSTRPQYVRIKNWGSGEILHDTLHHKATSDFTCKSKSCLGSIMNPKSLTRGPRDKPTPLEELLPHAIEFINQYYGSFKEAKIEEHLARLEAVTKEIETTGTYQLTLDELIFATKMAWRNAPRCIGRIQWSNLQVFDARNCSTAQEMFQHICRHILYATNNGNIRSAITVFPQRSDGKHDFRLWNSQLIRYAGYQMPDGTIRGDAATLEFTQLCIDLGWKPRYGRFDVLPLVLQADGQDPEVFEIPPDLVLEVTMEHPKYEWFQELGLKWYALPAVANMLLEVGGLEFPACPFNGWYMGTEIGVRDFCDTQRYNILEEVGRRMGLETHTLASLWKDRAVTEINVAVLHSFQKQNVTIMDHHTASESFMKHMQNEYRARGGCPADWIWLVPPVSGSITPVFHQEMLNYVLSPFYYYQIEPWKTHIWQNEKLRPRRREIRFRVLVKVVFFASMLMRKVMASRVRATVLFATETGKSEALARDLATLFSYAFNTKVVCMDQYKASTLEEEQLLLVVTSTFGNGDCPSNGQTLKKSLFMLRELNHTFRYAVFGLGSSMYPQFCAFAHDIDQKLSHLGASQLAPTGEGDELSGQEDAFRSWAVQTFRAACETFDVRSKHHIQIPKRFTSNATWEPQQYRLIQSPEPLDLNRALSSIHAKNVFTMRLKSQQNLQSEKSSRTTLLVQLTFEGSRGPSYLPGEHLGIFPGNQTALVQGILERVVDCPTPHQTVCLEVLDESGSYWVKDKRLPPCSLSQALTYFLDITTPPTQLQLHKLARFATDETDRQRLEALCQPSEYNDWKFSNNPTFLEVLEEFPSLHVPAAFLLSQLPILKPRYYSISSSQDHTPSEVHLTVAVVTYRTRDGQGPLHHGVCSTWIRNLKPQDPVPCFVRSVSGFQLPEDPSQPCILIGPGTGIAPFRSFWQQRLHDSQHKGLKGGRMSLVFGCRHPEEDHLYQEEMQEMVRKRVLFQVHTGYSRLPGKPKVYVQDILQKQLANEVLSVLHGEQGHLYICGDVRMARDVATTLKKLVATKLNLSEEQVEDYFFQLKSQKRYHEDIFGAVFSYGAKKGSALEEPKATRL

Nitric oxide synthase 3 = biological target: T2, Nitric oxide synthase 3 (Bos taurus, UniProt P29473); test: Inhibition of bovine recombinant endothelial NOS by hemoglobin capture assay
T2 sequence (P29473 whole entry): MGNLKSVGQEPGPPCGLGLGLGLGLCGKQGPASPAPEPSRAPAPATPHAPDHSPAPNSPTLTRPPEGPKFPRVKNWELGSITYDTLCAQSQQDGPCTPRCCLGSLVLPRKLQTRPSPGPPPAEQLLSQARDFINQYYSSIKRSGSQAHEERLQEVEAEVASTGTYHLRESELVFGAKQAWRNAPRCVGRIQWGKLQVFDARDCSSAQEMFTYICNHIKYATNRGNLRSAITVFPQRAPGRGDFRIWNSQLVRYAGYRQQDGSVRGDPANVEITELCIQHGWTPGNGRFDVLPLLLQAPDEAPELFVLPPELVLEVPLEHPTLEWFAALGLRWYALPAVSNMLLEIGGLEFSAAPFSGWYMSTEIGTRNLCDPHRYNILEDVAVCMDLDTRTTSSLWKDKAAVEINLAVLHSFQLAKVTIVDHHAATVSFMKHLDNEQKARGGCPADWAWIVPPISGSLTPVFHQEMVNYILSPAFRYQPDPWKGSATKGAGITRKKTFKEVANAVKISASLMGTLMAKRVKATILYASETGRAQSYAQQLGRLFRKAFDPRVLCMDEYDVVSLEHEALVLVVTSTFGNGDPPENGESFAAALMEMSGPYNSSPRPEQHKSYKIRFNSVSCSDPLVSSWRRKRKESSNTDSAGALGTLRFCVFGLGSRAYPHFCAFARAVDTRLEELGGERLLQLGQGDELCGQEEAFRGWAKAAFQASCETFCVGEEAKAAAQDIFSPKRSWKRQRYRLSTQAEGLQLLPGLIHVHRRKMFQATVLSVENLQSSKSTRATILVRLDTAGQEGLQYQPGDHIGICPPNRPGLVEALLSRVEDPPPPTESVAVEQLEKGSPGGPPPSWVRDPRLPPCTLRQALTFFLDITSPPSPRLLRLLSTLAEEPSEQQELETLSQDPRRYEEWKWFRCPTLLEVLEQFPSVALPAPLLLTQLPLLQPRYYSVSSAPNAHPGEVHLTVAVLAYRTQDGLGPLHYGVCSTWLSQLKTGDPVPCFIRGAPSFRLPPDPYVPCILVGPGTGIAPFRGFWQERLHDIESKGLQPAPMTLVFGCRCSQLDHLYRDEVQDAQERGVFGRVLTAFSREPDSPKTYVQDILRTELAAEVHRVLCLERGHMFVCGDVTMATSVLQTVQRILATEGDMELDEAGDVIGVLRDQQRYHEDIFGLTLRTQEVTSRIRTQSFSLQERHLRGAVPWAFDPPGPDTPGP

Which Ki [1] does the source give for `NC(=O)[C@@H]1C[C@@H](NC(=O)[C@@H](N)CCC/N=C(\N)N[N+](=O)[O-])CN1` here?
Its Ki is 0.33 µM.

With `N=C(NCCC[C@H](N)CN(N)CCN)N[N+](=O)[O-]` as the compound, how does the Ki [1] read?
Its Ki is 0.56 µM.

And the Ki [2]?
Its Ki is 37 µM.

What about the Ki (Nitric oxide synthase 3) of the same compound?
Its Ki is 103 µM.

Which Ki [1] does the source give for `N=C(NCCC[C@H](N)CN(O)CCN)N[N+](=O)[O-]` here?
The Ki was 0.12 µM.

And the Ki [2]?
The Ki was 16 µM.

And the Ki (Nitric oxide synthase 3)?
The Ki was 73 µM.

Which results are given for `N=C(NCCC[C@H](N)C(=O)N(O)[C@H]1CN[C@H](C(N)=O)C1)N[N+](=O)[O-]`?
Ki [1]: 0.31 µM; Ki [2]: 16 µM; Ki (Nitric oxide synthase 3): 35 µM

For `N=C(NCCC[C@H](N)C(=O)O)N[N+](=O)[O-]` [NITROARGININE], which Ki [2] is on record?
Its Ki is 4.28 µM.
